Key:
Type in all cases: in vivo, human
11β-HSD = test: Clinical study: urinary free cortisol and GC/MS urinary steroid ratios confirming inhibition of 11β-HSD
Protocol: A clinical study was undertaken to assess the functional significance of 11β-HSD within the eye by oral administration of carbenoxolone, a known inhibitor of both 11β-HSD1 and 11β-HSD2. The study was undertaken on eight healthy male volunteers who were not on any systemic or topical medications and had no family history of glaucoma. Baseline intra-ocular pressure readings were measured using the same Goldmann applanation tonometer at 08:00, 12:00, 16:00 and 20:00 hours on two consecutive days. Systolic and diastolic blood pressures were also measured at each time point. Venous blood was analysed for serum electrolytes on day one and urine was collected for 24-hour urinary free cortisol and GC/MS for cortisol/cortisone ratios. The subjects then commenced a course of 100 mg carbenoxolone taken orally three times a day for seven consecutive days. The IOP measurements and blood pressure recordings were repeated at each time point on the third and seventh day of carbenoxolone ingestion (i.e. days five and nine of the study). Urea and electrolytes were also measured on these days and inhibition of 11β-HSD was confirmed by comparing the original urinary F/E ratio with that from urine aliquoted from a further 24-hour collection performed between days six and seven of ingestion. […] In addition, there was a significant decrease in the tetrahydrocortisol (THF)+allo-THF/tetrahydrocortisone (THE) ratio (pre-THF+allo-THF/THE=0.92±0.23, per-THF+allo-THF/THE=0.7±0.19, p=0.0012). This reflects the relative 11β-HSD1/HSD2 activities predominantly in the liver.

healthy male volunteers = test: Clinical study: intra-ocular pressure (Goldmann applanation tonometer) under oral carbenoxolone; conditions: for reduction in IOP during the day (08:00 to 20:00 hrs): baseline reduction 0.38±1.16; for reduction in IOP during the day (08:00 to 20:00 hrs), percent: baseline 2.51%; for IOP of one subject vs days 1 and 2 (FIG. 3): both eyes
Protocol: A clinical study was undertaken to assess the functional significance of 11β-HSD within the eye by oral administration of carbenoxolone, a known inhibitor of both 11β-HSD1 and 11β-HSD2. The study was undertaken on eight healthy male volunteers who were not on any systemic or topical medications and had no family history of glaucoma. Baseline intra-ocular pressure readings were measured using the same Goldmann applanation tonometer at 08:00, 12:00, 16:00 and 20:00 hours on two consecutive days. Systolic and diastolic blood pressures were also measured at each time point. Venous blood was analysed for serum electrolytes on day one and urine was collected for 24-hour urinary free cortisol and GC/MS for cortisol/cortisone ratios. The subjects then commenced a course of 100 mg carbenoxolone taken orally three times a day for seven consecutive days. The IOP measurements and blood pressure recordings were repeated at each time point on the third and seventh day of carbenoxolone ingestion (i.e. days five and nine of the study). Urea and electrolytes were also measured on these days and inhibition of 11β-HSD was confirmed by comparing the original urinary F/E ratio with that from urine aliquoted from a further 24-hour collection performed between days six and seven of ingestion. […] There was no difference between each eye of each subject. The IOP was lower on day seven of ingestion (11.50±2.08) than on day three (12.48±1.48) compared with the mean baseline values (p<0.0001 for both days), the difference between days three and seven being significant (p<0.001). There was also a small reduction in intra-ocular pressure during the course of the day, i.e. from 08:00 hrs to 20:00 hrs (baseline reduction of0.38±1.16 (2.51%), p=0.076).

[1] = Clinical study: systolic and diastolic blood pressure and serum electrolytes; conditions: throughout the study, 100 mg orally three times a day for seven days
Protocol: A clinical study was undertaken to assess the functional significance of 11β-HSD within the eye by oral administration of carbenoxolone, a known inhibitor of both 11β-HSD1 and 11β-HSD2. The study was undertaken on eight healthy male volunteers who were not on any systemic or topical medications and had no family history of glaucoma. Baseline intra-ocular pressure readings were measured using the same Goldmann applanation tonometer at 08:00, 12:00, 16:00 and 20:00 hours on two consecutive days. Systolic and diastolic blood pressures were also measured at each time point. Venous blood was analysed for serum electrolytes on day one and urine was collected for 24-hour urinary free cortisol and GC/MS for cortisol/cortisone ratios. The subjects then commenced a course of 100 mg carbenoxolone taken orally three times a day for seven consecutive days. The IOP measurements and blood pressure recordings were repeated at each time point on the third and seventh day of carbenoxolone ingestion (i.e. days five and nine of the study). Urea and electrolytes were also measured on these days and inhibition of 11β-HSD was confirmed by comparing the original urinary F/E ratio with that from urine aliquoted from a further 24-hour collection performed between days six and seven of ingestion.
There was no difference between each eye of each subject. […]

SMILES: CC1(C)[C@@H](OC(=O)CCC(=O)O)CC[C@]2(C)[C@H]3C(=O)C=C4[C@@H]5C[C@@](C)(C(=O)O)CC[C@]5(C)CC[C@@]4(C)[C@]3(C)CC[C@@H]12 [carbenoxolone]
- 24-hour urinary free cortisol (11β-HSD; 24-hour urine between days six and seven of ingestion vs baseline): no significant change
- per-F/E (urinary cortisol/cortisone ratio by GC/MS) (11β-HSD; 24-hour urine between days six and seven of ingestion, pre-F/E 0.497±0.189, p=0.004): 1.144±0.382
- per-THF+allo-THF/THE ratio (11β-HSD; urine on ingestion, pre value 0.92±0.23, p=0.0012): 0.7±0.19
- reduction in IOP during the day (08:00 to 20:00 hrs) (healthy male volunteers; day seven of ingestion, p=0.0006): 2.25±1.91
- reduction in IOP during the day (08:00 to 20:00 hrs), percent (healthy male volunteers; day seven of ingestion): 17.31%
- reduction in IOP during the day (08:00 to 20:00 hrs) (healthy male volunteers; day three of ingestion, p=0.0058): 0.86±0.83
- reduction in IOP during the day (08:00 to 20:00 hrs), percent (healthy male volunteers; day three of ingestion): 6.51%
- per-IOP (mean IOP on ingesting carbenoxolone) (healthy male volunteers; eight subjects, 100 mg orally three times a day, pre-IOP 14.7±1.39): 12.00±1.87
- IOP on day seven of ingestion (healthy male volunteers; eight subjects, day seven of ingestion (study day 9), p<0.0001 vs mean baseline): 11.50±2.08
- IOP on day three of ingestion (healthy male volunteers; eight subjects, day three of ingestion (study day 5), p<0.0001 vs mean baseline): 12.48±1.48
- subjects showing a decrease in IOP (healthy male volunteers; eight subjects, drop significant in seven individuals (<0.01)): All eight subjects showed a decrease in IOP
- overall reduction in IOP (healthy male volunteers; mean of eight subjects, 100 mg orally three times a day for seven days, vs pre-IOP 14.7±1.39, p<0.000001): 18.2%
- IOP of one subject vs days 1 and 2 (FIG. 3) (healthy male volunteers; day 5 (third day of ingestion)): generally lower
- IOP of one subject vs days 1 and 2 (FIG. 3) (healthy male volunteers; day 9 (seventh day of ingestion)): even lower
- serum electrolytes [1]: remained stable
- systolic and diastolic blood pressures [1]: remained stable
